# Test results published in paper PMC5867665, “Targeting Multiple Effector Pathways in Pancreatic Ductal Adenocarcinoma with a G-Quadruplex-Binding Small Molecule” (Journal of Medicinal Chemistry, 2018).
# Key:
# [1] = Maximum tolerated dose (MTD) study; assay type: in vivo; details: dose-escalation MTD study, IV, CD-1 nude mice
# Protocol: To determine if the in vitro activity of CM03 was paralleled in vivo, we explored the activity of CM03 in a mouse xenograft model of PDAC. We have previously reported that the maximum tolerated dosage (MTD) for intravenous (IV) administration of MM41 is 25 mg/kg.[33] CM03 was well tolerated, up to a dosage of 45–50 mg/kg, as judged by a dose-escalation MTD study. A therapeutic schedule of two CM03 intravenous (IV) doses was explored using a subcutaneous MIA PaCa-2 pancreatic tumor xenograft model derived from the human cell line used in the cell growth inhibition studies. A group size of eight CD-1 nude mice was used, and dosing was conducted at 10 and 15 mg/kg, each twice weekly, over a period of 4 weeks (28 days: 8 doses). Two further groups were given either MM41 or gemcitabine at 15 mg/kg and received the same dose regimen. […] IVIS imaging of treated mice was performed by taking account of the intrinsic fluorescence of CM03. […] Thus, in contrast to MM41 and gemcitabine, the higher-dose CM03 treatment results in a statistically significant (p < 0.001) antitumor effect, which persisted long after dosing had ceased, up to the termination of the xenograft experiment (62 days).
# The maximum tolerated dose (MTD) studies of MM41 and CM03 were performed in CD-1 nude mice. […] Mice were monitored visually for signs of adverse effects over periods of up to 72 h. […]
# [2] = test system: PANC-1 and MIA PaCa-2 cells; assay: RNA-seq gene expression, genes common to PANC-1 and MIA PaCa-2; assay type: cell-based, human
# Source text: CM03 is a potent G4 ligand, as shown by the FRET and quantitative binding experiments reported here. We therefore reasoned that the potent CM03 antiproliferative activity on PDAC cells could be mediated through a G4-targeting mechanism. To test this hypothesis, we determined whether transcriptome changes upon early CM03 treatment were correlated with G4 presence in promoters and/or gene bodies. […] The time and dose of CM03 treatment were selected to reveal initial but robust mRNA changes while minimizing chronic effects due to cell toxicity. In both cell lines, the number of genes with altered expression (as defined by >0.5 increase in Log 2 of fold change [Log2 FC], or < −0.5 decrease; false discovery rate [FDR] < 0.1) increased with duration of CM03 treatment. In PANC-1 cells 2165 genes at 6 h and 3977 genes at 24 h were seen to change, while in MIA PaCa-2 cells, 5306 genes changed at 6 h and 5477 genes at 24 h compared to untreated controls (Supporting Information, Table 1). […] To validate that the targeting of G4-containing genes is not a general feature of antiproliferative agents, we also examined the effects of the first-line therapeutic agent for PDAC, gemcitabine,[37] a potent antiproliferative DNA synthesis inhibitor whose mechanism of action is G4-independent and which remains a standard therapy option in advanced PDAC. Both cell lines were treated with a range of gemcitabine concentrations (Supporting Information, Figure 4, Table 4) for 6 or 24 h.
# The PDAC cell lines PANC-1 (ATCC, catalogue no. CRL-1469) and MIA PaCa-2 (ATCC, catalogue no. CRL-142) were maintained in DMEM (ThermoFisher, catalogue no. 11965092) supplemented with 10% (v/v) heat inactivated FBS (ThermoFisher) in a humidified atmosphere containing 5% CO2 at 37 °C. Cell lines were confirmed mycoplasma free by RNA-capture ELISA, and their genotypes were certified by STR profiling.
# PANC-1 (0.35 × 10^6 cells/well) and MIA PaCa-2 (1.5 × 10^6 cells/well) cell lines were seeded overnight in 60 mm plates. Next day, cells were treated with 400 nM CM03 for 6 and 24 h. For gemcitabine treatment, cells were treated for 6 and 24 h with DMSO or 30 nM, 100 nM, 300 nM, 1 μM, 3 μM, and 10 μM gemcitabine-HCL for PANC-1 cells and 30 nM, 300 nM, and 3 μM gemcitabine-HCl for MIA PaCa-2 cells. Total RNA was extracted using the Qiagen RNeasy Plus Mini Kit (ThermoFisher, catalogue no. 74134) as per the manufacturer’s instructions. RNA quality (RIN > 9.0) was checked with an Aligent 2100 bioanalyzer RNA 6000 Nano Chip, and RNA concentration was quantified using a Qubit fluorometer (ThermoFisher) and Qubit RNA HS Assay Kit (Qiagen, catalogue no. Q32852). RNA-seq libraries were then generated using the Illumina Truseq RNA HT (stranded mRNA) kit (Illumina, catalogue no. RS-122–2103) as per the manufacturer’s instructions and sequenced using an Illumina HiSeq4000.
# Fastq raw sequencing files were preprocessed using cutadapt[81] to remove sequencing adapters and low quality sequencing tails (options −q 10) and then aligned to the human genome (GRCh37/hg19) using tophat2[82] and using the UCSC gtf file provided by Illumina iGenomes as an annotation file (http://support.illumina.com/sequencing/sequencing_software/igenome.html). Gene counts were calculated using htseq-count[83] and the same gtf file. Differential expression analysis was done using the R package edgeR.[84] Differentially expressed genes were estimated independently for both cell lines (MIA PaCa-2 and PANC-1) and for the different time points (6 and 24 h) and were then intersected to inspect the common genes. The sequencing data is available at the GEO public functional genomics data repository (https://www.ncbi.nlm.nih.gov/geo/) as GSE105083. Details of the putative G4 sequence (PQs) analysis are given in the Supporting Information.
# hERG = hERG (Homo sapiens, UniProt Q12809); assay: hERG liability (unpublished data)
# Chain of hERG (Q12809 whole entry): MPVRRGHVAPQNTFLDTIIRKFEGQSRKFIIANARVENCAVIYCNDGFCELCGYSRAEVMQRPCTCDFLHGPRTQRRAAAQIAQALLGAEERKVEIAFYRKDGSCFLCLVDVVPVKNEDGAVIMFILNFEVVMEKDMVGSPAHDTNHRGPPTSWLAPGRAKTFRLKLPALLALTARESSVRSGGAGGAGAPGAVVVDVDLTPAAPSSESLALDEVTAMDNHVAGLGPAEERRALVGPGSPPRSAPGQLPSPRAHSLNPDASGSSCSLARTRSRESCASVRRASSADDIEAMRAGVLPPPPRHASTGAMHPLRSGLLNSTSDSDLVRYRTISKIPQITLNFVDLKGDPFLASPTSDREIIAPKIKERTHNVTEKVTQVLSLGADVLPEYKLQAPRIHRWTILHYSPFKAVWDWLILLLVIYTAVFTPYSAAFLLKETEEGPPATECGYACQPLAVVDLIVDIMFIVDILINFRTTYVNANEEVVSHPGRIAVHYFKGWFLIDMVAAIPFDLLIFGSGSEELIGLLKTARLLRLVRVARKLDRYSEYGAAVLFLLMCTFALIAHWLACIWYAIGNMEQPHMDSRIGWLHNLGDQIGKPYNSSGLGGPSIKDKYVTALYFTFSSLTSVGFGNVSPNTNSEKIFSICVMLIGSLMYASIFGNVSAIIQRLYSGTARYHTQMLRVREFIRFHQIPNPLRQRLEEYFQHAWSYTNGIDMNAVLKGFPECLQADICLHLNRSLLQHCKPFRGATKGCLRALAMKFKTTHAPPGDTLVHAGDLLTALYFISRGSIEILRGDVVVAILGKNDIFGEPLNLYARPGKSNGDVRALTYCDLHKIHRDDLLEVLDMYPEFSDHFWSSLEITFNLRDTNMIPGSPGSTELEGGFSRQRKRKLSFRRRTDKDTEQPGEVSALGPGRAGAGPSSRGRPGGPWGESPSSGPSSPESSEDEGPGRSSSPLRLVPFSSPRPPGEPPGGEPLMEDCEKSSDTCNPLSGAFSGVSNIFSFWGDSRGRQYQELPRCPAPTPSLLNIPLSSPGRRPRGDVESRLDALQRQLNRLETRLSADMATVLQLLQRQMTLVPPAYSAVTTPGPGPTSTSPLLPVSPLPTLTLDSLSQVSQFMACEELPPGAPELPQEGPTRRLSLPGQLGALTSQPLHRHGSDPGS
# [3] = RNA-seq, 400 nM CM03, 6 h, both cell lines combined
# [4] = RNA-seq, 400 nM CM03, 24 h, both cell lines combined
structure (smiles),measurement,setting,value
"O=C1c2ccc3c4c(c(NCCN5CCCC5)cc(c24)C(=O)N1CCCN1CCOCC1)C(=O)N(CCCN1CCOCC1)C3=O [CM03, 2,7-bis(3-morpholinopropyl)-4-((2-(pyrrolidin-1-yl)ethyl)amino)benzo[lmn][3,8]phenanthroline-1,3,6,8(2H,7H)-tetraone]","well tolerated, up to a dosage of",[1],45 to 50 mg/kg
same,genes changed in both cell lines,"[2]; 400 nM CM03, 6 h",1185
same,genes changed in both cell lines,"[2]; 400 nM CM03, 24 h",1917
same,KRAS mRNA expression,"[2]; RNA-seq, 400 nM CM03, 6 and 24 h, either pancreatic cell line",unaffected
same,A1BG combined_logFC.6h.both,[2]; [3],0.1086
same,A2LD1 combined_logFC.6h.both,[2]; [3],-0.2585
same,AAAS combined_logFC.6h.both,[2]; [3],-0.007867
same,AACS combined_logFC.6h.both,[2]; [3],0.04302
same,A1BG combined_logFC.24h.both,[2]; [4],-0.3316
same,A2LD1 combined_logFC.24h.both,[2]; [4],-0.03116
same,A4GALT combined_logFC.24h.both,[2]; [4],0.4104
same,AACS combined_logFC.24h.both,[2]; [4],-0.1174
same,hERG liabilities,hERG,neither MM41 nor CM03 show significant hERG liabilities
